Test results from patent publication US20250170099A1, “TREATMENT OF POSTNATAL DEPRESSION” (GH RESEARCH IRELAND LIMITED, priority 2022, published 2025).

How the values were obtained:
[1] = Pharmacokinetics of 5-MeO-DMT and bufotenine after inhalation; assay type: in vivo, human; conditions: within 1 to 4 hours
[2] = system: Salmonella typhimurium TA98, TA100, TA1535, TA1537 and Escherichia coli WP2 uvrA pKM101; test: Bacterial mutation test; assay type: cell-based
Experimental: These conditions included treatments at concentrations up to 5000 μg/plate (the maximum recommended concentration according to current regulatory guidelines), in the absence and in the presence of a rat liver metabolic activation system (S-9).

## COc1ccc2[nH]cc(CCN(C)C)c2c1 [5-MeO-DMT]
[1]
  accumulation upon repeated administration: No accumulation
[2]
  in vitro genotoxicity assessment: negative
[2]; up to 5000 μg/plate, without and with S-9
  mutation induction: did not induce mutation
